Toxic doses and inconclusive results are not listed. How the source made its calls: active means survival T/C of 150% or more; inactive means T/C below 125% in these data.
Test system: BDF1 mice, P388 leukemia ip, median survival T/C
Experiment: NCI In Vivo Anticancer Drug Screen. Data for tumor model P388 Leukemia (intraperitoneal) in B6D2F1 (BDF1) mice
Settings: endpoint: median survival time, higher = longer survival
Procedure, shortened: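 Vehicle-dosed animals serve as the reference; survival of compound-dosed, tumour-implanted mice is divided by it.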

[1] = dose: 50.0 mg/kg/injection, schedule: Q01DX009 (ip), vehicle: water
[2] = dose: 100.0 mg/kg/injection, schedule: Q01DX009 (ip), vehicle: water
[3] = dose: 25.0 mg/kg/injection, schedule: Q04DX003 (ip), vehicle: saline with Tween-80
[4] = dose: 12.5 mg/kg/injection, schedule: Q01DX009 (ip), vehicle: saline with Tween-80
[5] = dose: 25.0 mg/kg/injection, schedule: Q01DX009 (ip), vehicle: saline with Tween-80
[6] = dose: 50.0 mg/kg/injection, schedule: Q01DX009 (ip), vehicle: saline with Tween-80
[7] = dose: 100.0 mg/kg/injection, schedule: Q01DX009 (ip), vehicle: saline
[8] = dose: 12.5 mg/kg/injection, schedule: Q01DX009 (ip), vehicle: saline
[9] = dose: 100.0 mg/kg/injection, schedule: Q04DX003 (ip), vehicle: saline
[10] = dose: 200.0 mg/kg/injection, schedule: Q04DX003 (ip), vehicle: saline
[11] = dose: 400.0 mg/kg/injection, schedule: Q04DX003 (ip), vehicle: saline

Measured: T/C

Nc1nc2nsnc2nc1N
inactive: dose: 1.56 mg/kg/injection, schedule: Q01DX009 (ip), vehicle: water 111 % of control | dose: 3.12 mg/kg/injection, schedule: Q01DX009 (ip), vehicle: water 111 % of control | dose: 3.12 mg/kg/injection, schedule: Q04DX003 (ip), vehicle: water 100 % of control | dose: 6.25 mg/kg/injection, schedule: Q01DX009 (ip), vehicle: water 100 % of control | dose: 6.25 mg/kg/injection, schedule: Q04DX003 (ip), vehicle: water 110 % of control | dose: 12.5 mg/kg/injection, schedule: Q01DX009 (ip), vehicle: water 100 % of control | dose: 12.5 mg/kg/injection, schedule: Q04DX003 (ip), vehicle: water 100 % of control | dose: 25.0 mg/kg/injection, schedule: Q01DX009 (ip), vehicle: water 102 % of control | dose: 25.0 mg/kg/injection, schedule: Q04DX003 (ip), vehicle: water 110 % of control | [1] 111 % of control | dose: 50.0 mg/kg/injection, schedule: Q04DX003 (ip), vehicle: water 115 % of control | [2] 118 % of control

CCN(CCS)Cc1ccccc1
inactive: [3] 100 % of control | dose: 50.0 mg/kg/injection, schedule: Q04DX003 (ip), vehicle: saline with Tween-80 104 % of control | dose: 100.0 mg/kg/injection, schedule: Q04DX003 (ip), vehicle: saline with Tween-80 109 % of control

c1cc2c(c(NC3=NCCCO3)c1)CCCC2
inactive: [4] 100 % of control | [5] 110 % of control | [6] 105 % of control

Cc1ccc(N2CCNCC2)cc1
inactive: dose: 6.25 mg/kg/injection, schedule: Q04DX003 (ip), vehicle: saline sonified 95 % of control | dose: 12.5 mg/kg/injection, schedule: Q04DX003 (ip), vehicle: saline sonified 100 % of control | dose: 25.0 mg/kg/injection, schedule: Q04DX003 (ip), vehicle: saline sonified 100 % of control

FC1(F)C(F)(F)C(Cl)(Cl)C1(Cl)Cl
inactive: dose: 75.0 mg/kg/injection, schedule: Q01DX001 (ip), vehicle: saline 100 % of control | dose: 150.0 mg/kg/injection, schedule: Q01DX001 (ip), vehicle: saline 109 % of control | dose: 300.0 mg/kg/injection, schedule: Q01DX001 (ip), vehicle: saline 104 % of control

CCCCC(CC)COC(OCC(CC)CCCC)C(OCC(CC)CCCC)OCC(CC)CCCC (centres undefined)
inactive: dose: 100.0 mg/kg/injection, schedule: Q01DX009 (ip), vehicle: saline with Tween-80 100 % of control | dose: 200.0 mg/kg/injection, schedule: Q01DX009 (ip), vehicle: saline with Tween-80 100 % of control | dose: 400.0 mg/kg/injection, schedule: Q01DX009 (ip), vehicle: saline with Tween-80 90 % of control

CC[C@H]1CN(C)[C@H]2Cc3c([nH]c4ccccc34)C(=O)C[C@H]1C2C(=O)OC (some centres undefined)
inactive: dose: 0.25 mg/kg/injection, schedule: Q01DX009 (ip), vehicle: other 86 % of control | dose: 0.5 mg/kg/injection, schedule: Q01DX009 (ip), vehicle: other 86 % of control | dose: 1.0 mg/kg/injection, schedule: Q01DX009 (ip), vehicle: other 86 % of control | dose: 2.0 mg/kg/injection, schedule: Q01DX009 (ip), vehicle: other 95 % of control

OCc1cccnc1
inactive: dose: 50.0 mg/kg/injection, schedule: Q01DX009 (ip), vehicle: saline 93 % of control | [7] 100 % of control | dose: 200.0 mg/kg/injection, schedule: Q01DX009 (ip), vehicle: saline 100 % of control | dose: 400.0 mg/kg/injection, schedule: Q01DX009 (ip), vehicle: saline 108 % of control

COc1cc2c(cc1OC)C1c3cc(OC)c(OC)cc3CC(=O)N1CC2 (centres undefined)
inactive: dose: 0.09 mg/kg/injection, schedule: Q01DX009 (ip), vehicle: saline 110 % of control | dose: 0.39 mg/kg/injection, schedule: Q01DX009 (ip), vehicle: saline 88 % of control | dose: 0.78 mg/kg/injection, schedule: Q01DX009 (ip), vehicle: saline 98 % of control | dose: 1.56 mg/kg/injection, schedule: Q01DX009 (ip), vehicle: saline 99 % of control | dose: 3.12 mg/kg/injection, schedule: Q01DX009 (ip), vehicle: saline 100 % of control | [8] 108 % of control | dose: 50.0 mg/kg/injection, schedule: Q04DX003 (ip), vehicle: saline 102 % of control | [7] 92 % of control | [9] 99 % of control | [10] 102 % of control | [11] 93 % of control

COc1cc(C(=O)CCC(=O)O)cc(OC)c1OC
inactive: dose: 100.0 mg/kg/injection, schedule: Q01DX009 (ip), vehicle: Klucel (hydroxypropylcellulose) (HPC) 100 % of control | dose: 200.0 mg/kg/injection, schedule: Q01DX009 (ip), vehicle: Klucel (hydroxypropylcellulose) (HPC) 100 % of control | dose: 200.0 mg/kg/injection, schedule: Q04DX003 (ip), vehicle: Klucel (hydroxypropylcellulose) (HPC) 105 % of control | dose: 400.0 mg/kg/injection, schedule: Q01DX009 (ip), vehicle: Klucel (hydroxypropylcellulose) (HPC) 95 % of control | dose: 400.0 mg/kg/injection, schedule: Q04DX003 (ip), vehicle: Klucel (hydroxypropylcellulose) (HPC) 115 % of control

CC1C[N+](C)=C2CCCCC2=C1N (centres undefined)
inactive: dose: 6.25 mg/kg/injection, schedule: Q01DX009 (ip), vehicle: saline 95 % of control | [8] 100 % of control | dose: 25.0 mg/kg/injection, schedule: Q01DX009 (ip), vehicle: saline 86 % of control

CC12CC[C]([Hg][I])(CC1)C2(C)C
inactive: dose: 3.13 mg/kg/injection, schedule: Q01DX009 (ip), vehicle: saline with Tween-80 121 % of control | dose: 6.25 mg/kg/injection, schedule: Q01DX009 (ip), vehicle: saline with Tween-80 121 % of control | [4] 114 % of control

CC(=O)NC(C)C(C)C (centres undefined)
inactive: [9] 100 % of control | [10] 95 % of control | [11] 100 % of control

c1ccncc1
inactive: [9] 96 % of control | [10] 102 % of control | [11] 105 % of control

CC(C)(C)CC(C)(C)c1ccc(O)cc1O
inactive: [5] 120 % of control | [6] 95 % of control

COc1ccc(CCO)cc1OC
inactive: [1] 97 % of control | [2] 100 % of control | dose: 100.0 mg/kg/injection, schedule: Q04DX003 (ip), vehicle: water 99 % of control | dose: 200.0 mg/kg/injection, schedule: Q01DX009 (ip), vehicle: water 96 % of control | dose: 200.0 mg/kg/injection, schedule: Q04DX003 (ip), vehicle: water 106 % of control | dose: 400.0 mg/kg/injection, schedule: Q01DX009 (ip), vehicle: water 96 % of control

CO[C@H]1CC=C2CCN3CCCc4cc5c(cc4[C@]23C1)OCO5
inactive: dose: 10.0 mg/kg/injection, schedule: Q01DX009 (ip), vehicle: alcohol 100 % of control | dose: 20.0 mg/kg/injection, schedule: Q01DX009 (ip), vehicle: alcohol 100 % of control

CC1=C(Br)C(=O)C(Br)=C(Br)C1=O
inactive: dose: 25.0 mg/kg/injection, schedule: Q04DX003 (ip), vehicle: Klucel (hydroxypropylcellulose) (HPC) 104 % of control | dose: 35.0 mg/kg/injection, schedule: Q01DX009 (ip), vehicle: Klucel (hydroxypropylcellulose) (HPC) 109 % of control | dose: 37.5 mg/kg/injection, schedule: Q01DX001 (ip), vehicle: Klucel (hydroxypropylcellulose) (HPC) 95 % of control | dose: 50.0 mg/kg/injection, schedule: Q04DX003 (ip), vehicle: Klucel (hydroxypropylcellulose) (HPC) 100 % of control | dose: 55.0 mg/kg/injection, schedule: Q01DX009 (ip), vehicle: Klucel (hydroxypropylcellulose) (HPC) 90 % of control | dose: 75.0 mg/kg/injection, schedule: Q01DX001 (ip), vehicle: Klucel (hydroxypropylcellulose) (HPC) 109 % of control | dose: 100.0 mg/kg/injection, schedule: Q04DX003 (ip), vehicle: Klucel (hydroxypropylcellulose) (HPC) 90 % of control | dose: 150.0 mg/kg/injection, schedule: Q01DX001 (ip), vehicle: Klucel (hydroxypropylcellulose) (HPC) 100 % of control

CCCCOc1cc(C(=O)NCCN(CC)CC)c2ccccc2n1
inactive: dose: 6.25 mg/kg/injection, schedule: Q04DX003 (ip), vehicle: saline with Tween-80 100 % of control | dose: 12.5 mg/kg/injection, schedule: Q04DX003 (ip), vehicle: saline with Tween-80 109 % of control | [3] 109 % of control

Reference: PubChem BioAssay AID328 (DTP/NCI, 2004)
